Laboratory results reported in paper PMC11003488 (Journal of Enzyme Inhibition and Medicinal Chemistry, 2023).
“And” between values parts separate entries of the source, which are not always exact repeats. Identical values can stand only once. Like-named read-outs stand apart in the source and are kept apart here.

How the values were obtained:
NSCLC cell lines = assay: NCI-60 SRB growth inhibition, subpanel; type: cell-based, human; details: for GI50: Homo sapiens
Colon cancer cell lines = assay: NCI-60 SRB growth inhibition, subpanel; type: cell-based, human; details: for GI50: Homo sapiens
CNS cancer cell lines = assay: NCI-60 SRB growth inhibition, subpanel; type: cell-based, human; details: for GI50: Homo sapiens
Melanoma cell lines = assay: NCI-60 SRB growth inhibition, subpanel; type: cell-based, human; details: for GI50: Homo sapiens
[1] = test system: Ovarian cancer cell lines; assay: NCI-60 SRB growth inhibition, subpanel; type: cell-based, human; details: for GI50: Homo sapiens
Renal cancer cell lines = assay: NCI-60 SRB growth inhibition, subpanel; type: cell-based, human; details: for GI50: Homo sapiens
[2] = test system: Prostate cancer cell lines; assay: NCI-60 SRB growth inhibition, subpanel; type: cell-based, human; details: for GI50: Homo sapiens
Breast cancer cell lines = assay: NCI-60 SRB growth inhibition, subpanel; type: cell-based, human; details: for GI50: Homo sapiens
[3] = Cytotoxicity towards normal fibroblasts, safety index; type: cell-based, human; details: human, WI-38 normal fibroblast cells
[4] = test system: WI-38 normal human fibroblast cells; assay: as above; type: cell-based; details: WI-38 versus cancer cell lines
Human VEGFR-2 = Human VEGFR-2 (Homo sapiens, UniProt P35968); assay: VEGFR-2 inhibition assay; type: biochemical
Human VEGFR-2, sequence (P35968 20-1356): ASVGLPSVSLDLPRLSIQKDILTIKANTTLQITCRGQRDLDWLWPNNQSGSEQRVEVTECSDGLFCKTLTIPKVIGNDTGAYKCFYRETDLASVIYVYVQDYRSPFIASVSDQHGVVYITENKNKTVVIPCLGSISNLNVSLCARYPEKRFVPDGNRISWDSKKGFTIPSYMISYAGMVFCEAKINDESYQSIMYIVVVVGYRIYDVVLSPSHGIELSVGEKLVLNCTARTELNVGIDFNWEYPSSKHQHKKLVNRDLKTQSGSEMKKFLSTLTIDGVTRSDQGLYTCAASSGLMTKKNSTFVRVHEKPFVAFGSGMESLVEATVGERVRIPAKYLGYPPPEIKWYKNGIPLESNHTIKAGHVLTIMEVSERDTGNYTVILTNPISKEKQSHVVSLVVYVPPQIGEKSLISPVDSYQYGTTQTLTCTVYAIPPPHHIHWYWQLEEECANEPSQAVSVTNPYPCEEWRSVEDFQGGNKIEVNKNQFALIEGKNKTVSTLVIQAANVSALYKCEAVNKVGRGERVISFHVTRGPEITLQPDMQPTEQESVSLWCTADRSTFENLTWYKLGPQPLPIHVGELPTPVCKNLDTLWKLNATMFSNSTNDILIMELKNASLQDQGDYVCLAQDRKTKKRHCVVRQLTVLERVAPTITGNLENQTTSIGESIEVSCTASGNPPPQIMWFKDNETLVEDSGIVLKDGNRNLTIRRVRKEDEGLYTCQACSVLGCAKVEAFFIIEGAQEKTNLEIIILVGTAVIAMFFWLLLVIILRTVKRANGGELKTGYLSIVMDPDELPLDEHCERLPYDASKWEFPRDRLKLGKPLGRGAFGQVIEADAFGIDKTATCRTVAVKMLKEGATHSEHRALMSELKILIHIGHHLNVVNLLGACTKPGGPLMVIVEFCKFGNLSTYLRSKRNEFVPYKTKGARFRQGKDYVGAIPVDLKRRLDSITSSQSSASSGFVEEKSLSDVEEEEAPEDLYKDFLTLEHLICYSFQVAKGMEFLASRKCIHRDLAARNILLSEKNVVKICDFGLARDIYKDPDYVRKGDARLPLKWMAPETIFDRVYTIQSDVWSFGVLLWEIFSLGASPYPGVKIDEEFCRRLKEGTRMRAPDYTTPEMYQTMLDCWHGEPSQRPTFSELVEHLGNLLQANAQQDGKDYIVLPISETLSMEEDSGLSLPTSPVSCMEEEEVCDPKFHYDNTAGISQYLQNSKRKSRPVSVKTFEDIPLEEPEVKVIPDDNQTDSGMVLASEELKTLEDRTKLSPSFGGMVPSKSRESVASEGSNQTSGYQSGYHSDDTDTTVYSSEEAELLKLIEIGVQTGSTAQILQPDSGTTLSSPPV

HCT-116 (colon cancer) [5] = assay: Apoptosis AV/PI assay by flow cytometry; type: cell-based, human; details: HCT-116, 24 h, IC50 of compound
HCT-116 (colon cancer) [6] = assay: Cell cycle analysis by PI flow cytometry; type: cell-based, human; details: HCT-116, 24 h, IC50 of compound
Caspase-3 [7] = assay: Protein level by ELISA assay in HCT-116; type: cell-based, human; details: HCT-116, IC50 of compound, 24 h, vs 0.1% DMSO
Bax [8] = assay: Protein level by ELISA assay in HCT-116; type: cell-based, human; details: HCT-116, IC50 of compound, 24 h, vs 0.1% DMSO
Caspase-3 [9] = assay: Gene expression by RT-qPCR in HCT-116; details: HCT-116, 24 h, IC50 of compound; vs 0.1% DMSO; 2^-ΔΔct
Bax [10] = assay: Gene expression by RT-qPCR in HCT-116; details: HCT-116, 24 h
TNF-α = assay: Gene expression by RT-qPCR in HCT-116; details: HCT-116, 24 h, IC50 of compound; vs 0.1% DMSO; 2^-ΔΔct

## COc1ccc(CNc2cccc(C(=O)/C=C/c3ccc(NC(C)=O)cc3)c2)cc1OC [Compound 5h, (E)-N-(4–(3-(3-((3,4-dimethoxybenzyl)amino)phenyl)-3-oxoprop-1-en-1-yl)phenyl) acetamide]
NSCLC cell lines; read-out: GI50 MG-MID
  GI50: 8.91 µM
NSCLC cell lines; read-out: MG-MID GI50
  GI50: 8.91 µM
NSCLC cell lines; full panel MG-MID / NSCLC subpanel MG-MID
  SI (Selectivity Index): 0.50
Colon cancer cell lines; read-out: GI50 MG-MID
  GI50: 3.24 µM
Colon cancer cell lines; read-out: MG-MID GI50
  GI50: 3.24 µM
Colon cancer cell lines; full panel MG-MID / Colon Cancer subpanel MG-MID
  SI (Selectivity Index): 1.38
CNS cancer cell lines; read-out: GI50 MG-MID
  GI50: 5.22 µM
CNS cancer cell lines; read-out: MG-MID GI50
  GI50: 5.22 µM
CNS cancer cell lines; full panel MG-MID / CNS Cancer subpanel MG-MID
  SI (Selectivity Index): 0.86
Melanoma cell lines; read-out: GI50 MG-MID
  GI50: 4.44 µM
Melanoma cell lines; read-out: MG-MID GI50
  GI50: 4.44 µM
Melanoma cell lines; full panel MG-MID / Melanoma subpanel MG-MID
  SI (Selectivity Index): 1.01
[1]; read-out: GI50 MG-MID
  GI50: 5.75 µM
[1]; read-out: MG-MID GI50
  GI50: 5.75 µM
[1]; full panel MG-MID / Ovarian Cancer subpanel MG-MID
  SI (Selectivity Index): 0.78
Renal cancer cell lines; read-out: GI50 MG-MID
  GI50: 3.99 µM
Renal cancer cell lines; read-out: MG-MID GI50
  GI50: 3.99 µM
Renal cancer cell lines; full panel MG-MID / Renal Cancer subpanel MG-MID
  SI (Selectivity Index): 1.12
[2]; read-out: GI50 MG-MID
  GI50: 3.53 µM
[2]; read-out: MG-MID GI50
  GI50: 3.53 µM
[2]; full panel MG-MID / Prostatic Cancer subpanel MG-MID
  SI (Selectivity Index): 1.27
Breast cancer cell lines; read-out: GI50 MG-MID
  GI50: 2.91 µM
Breast cancer cell lines; read-out: MG-MID GI50
  GI50: 2.91 µM
Breast cancer cell lines; full panel MG-MID / Breast Cancer subpanel MG-MID
  SI (Selectivity Index): 1.54
[3]
  GI50 at 48 h: > 100 µM
[4]
  Safety index: >1
Human VEGFR-2
  IC50: 0.31 ± 0.015 µM
HCT-116 (colon cancer) [5]
  % Early apoptotic cells (LR): 0.24 ± 0.01%
  % Late apoptotic cells (UL): 64.62 ± 10.1%
  % Necrotic cells (UR): 2.25 ± 0.71%
  % Viable cells (LL): 32.89 ± 3.8%
HCT-116 (colon cancer) [6]
  % G0-G1: 35.12 ± 3.5%
  % G2M: 3.21 ± 1.1%
  % S: 4.91 ± 1.1%
  % SubG0-G1: 56.87 ± 7.7%
Caspase-3 [7]
  caspase-3 protein level: 43.12 fold
Bax [8]
  Bax protein level: 2.96 fold
Caspase-3 [9]
  Caspase-3 gene expression fold change: 0.002 fold
Bax [10]; IC50 of compound, vs 0.1% DMSO, 2^-ΔΔct
  Bax gene expression fold change: 30.06 ± 3.4 fold
Bax [10]; ratio of gene expression fold changes
  Bax/Bcl-2 ratio: 31.6
TNF-α
  TNF-α gene expression fold change: 2.2 fold and 2.20 ± 0.17 fold
